Results from ChEMBL document CHEMBL1177794, “Broad spectrum alkynyl inhibitors of T315I Bcr-Abl” (Bioorg Med Chem Lett, 2010).

Legend:
[1] = molecular target: Calcium-dependent protein kinase 1 (Plasmodium falciparum) (UniProt P62344); test: Inhibition of Plasmodium falciparum PFCDPK1 at 10 uM; conditions: values are per cent of control
[2] = molecular target: Interleukin-1 receptor-associated kinase 1 (Homo sapiens) (UniProt P51617); test: Inhibition of IRAK1 at 10 uM; values are per cent of control
[3] = molecular target: Serine/threonine-protein kinase Chk1 (Homo sapiens) (UniProt O14757); test: Inhibition of CHEK1 at 10 uM; values are per cent of control
[4] = molecular target: Aurora kinase B (Homo sapiens) (UniProt Q96GD4); test: Inhibition of AURKB at 10 uM; conditions: values are per cent of control
Chain of Aurora kinase B (Homo sapiens) (Q96GD4 whole entry): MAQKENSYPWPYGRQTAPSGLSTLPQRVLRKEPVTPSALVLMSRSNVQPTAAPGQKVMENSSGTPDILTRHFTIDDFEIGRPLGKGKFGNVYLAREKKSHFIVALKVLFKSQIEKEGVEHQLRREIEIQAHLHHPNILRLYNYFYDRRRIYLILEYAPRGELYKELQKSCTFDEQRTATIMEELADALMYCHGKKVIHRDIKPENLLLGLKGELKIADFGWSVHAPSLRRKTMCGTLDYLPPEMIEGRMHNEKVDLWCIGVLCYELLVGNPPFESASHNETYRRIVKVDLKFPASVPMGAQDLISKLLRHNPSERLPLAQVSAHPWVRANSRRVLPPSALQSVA

[5] = molecular target: Cyclin-dependent kinase 14 (Homo sapiens) (UniProt O94921); test: Inhibition of PFTK1 at 10 uM; conditions: values are per cent of control
[6] = molecular target: 3-phosphoinositide-dependent protein kinase 1 (Homo sapiens) (UniProt O15530); test: Inhibition of PDPK1 at 10 uM
[7] = molecular target: Ephrin type-A receptor 2 (Homo sapiens) (UniProt P29317); test: Inhibition of EPHA2 at 10 uM; conditions: values are per cent of control
[8] = molecular target: Tyrosine-protein kinase JAK2 (Homo sapiens) (UniProt O60674); test: Inhibition of JAK2 JH1 catalytic domain at 10 uM; values are per cent of control
[9] = molecular target: Peripheral plasma membrane protein CASK (Homo sapiens) (UniProt O14936); test: Inhibition of CASK at 10 uM; conditions: values are per cent of control
[10] = molecular target: Tyrosine-protein kinase receptor UFO (Homo sapiens) (UniProt P30530); test: Inhibition of AXL at 10 uM; conditions: values are per cent of control
[11] = molecular target: Serine/threonine-protein kinase Nek2 (Homo sapiens) (UniProt P51955); test: Inhibition of NEK2 at 10 uM
[12] = molecular target: Cyclin-dependent kinase 13 (Homo sapiens) (UniProt Q14004); test: Inhibition of CDC2L5 at 10 uM; values are per cent of control
[13] = system: Tyrosine-protein kinase ABL1 (Homo sapiens), P00519 [H396P]; test: Inhibition of non phosphorylated ABL1 H396P mutant at 10 uM; conditions: values are per cent of control
[14] = molecular target: Wee1-like protein kinase 2 (Homo sapiens) (UniProt P0C1S8); test: Inhibition of WEE2 at 10 uM; conditions: values are per cent of control
[15] = molecular target: Homeodomain-interacting protein kinase 4 (Homo sapiens) (UniProt Q8NE63); test: Inhibition of HIPK4 at 10 uM; conditions: values are per cent of control
Chain of Homeodomain-interacting protein kinase 4 (Homo sapiens) (Q8NE63 whole entry): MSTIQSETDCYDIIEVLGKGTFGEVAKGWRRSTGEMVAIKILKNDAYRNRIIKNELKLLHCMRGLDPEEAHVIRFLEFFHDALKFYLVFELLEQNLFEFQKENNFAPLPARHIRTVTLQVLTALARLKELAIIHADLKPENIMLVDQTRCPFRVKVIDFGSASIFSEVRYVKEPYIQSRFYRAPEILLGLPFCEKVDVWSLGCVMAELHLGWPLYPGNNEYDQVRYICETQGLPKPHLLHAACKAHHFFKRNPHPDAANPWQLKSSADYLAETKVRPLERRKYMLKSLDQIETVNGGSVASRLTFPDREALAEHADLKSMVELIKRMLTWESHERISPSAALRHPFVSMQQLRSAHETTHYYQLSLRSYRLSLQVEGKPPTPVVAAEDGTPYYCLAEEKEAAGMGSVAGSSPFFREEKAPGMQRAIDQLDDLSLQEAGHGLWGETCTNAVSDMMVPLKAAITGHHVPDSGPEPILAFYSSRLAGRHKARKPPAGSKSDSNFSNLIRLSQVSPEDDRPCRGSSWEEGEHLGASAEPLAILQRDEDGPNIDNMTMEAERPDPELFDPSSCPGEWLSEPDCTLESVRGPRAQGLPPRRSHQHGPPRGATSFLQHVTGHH

[16] = system: Tyrosine-protein kinase ABL1 (Homo sapiens), P00519 [F317I]; test: Inhibition of phosphorylated ABL1 F317I mutant at 10 uM; conditions: values are per cent of control
[17] = molecular target: Dual specificity testis-specific protein kinase 1 (Homo sapiens) (UniProt Q15569); test: Inhibition of TESK1 at 10 uM
[18] = system: Mast/stem cell growth factor receptor Kit (Homo sapiens), P10721 [V559D]; test: Inhibition of KIT V559D mutant at 10 uM; conditions: values are per cent of control
[19] = molecular target: Tyrosine-protein kinase JAK1 (Homo sapiens) (UniProt P23458); test: Inhibition of JAK1 JH1 catalytic domain at 10 uM; values are per cent of control
[20] = molecular target: Serine/threonine-protein kinase LATS1 (Homo sapiens) (UniProt O95835); test: Inhibition of LATS1 at 10 uM; values are per cent of control
[21] = molecular target: Microtubule-associated serine/threonine-protein kinase 1 (Homo sapiens) (UniProt Q9Y2H9); test: Inhibition of MAST1 at 10 uM; conditions: values are per cent of control
[22] = molecular target: Muscle, skeletal receptor tyrosine-protein kinase (Homo sapiens) (UniProt O15146); test: Inhibition of MUSK at 10 uM
[23] = molecular target: Insulin-like growth factor 1 receptor (Homo sapiens) (UniProt P08069); test: Inhibition of IGF1R at 10 uM; conditions: values are per cent of control
[24] = molecular target: Testis-specific serine/threonine-protein kinase 1 (Homo sapiens) (UniProt Q9BXA7); test: Inhibition of TSSK1B at 10 uM; conditions: values are per cent of control
Chain of Testis-specific serine/threonine-protein kinase 1 (Homo sapiens) (Q9BXA7 whole entry, canonical isoform): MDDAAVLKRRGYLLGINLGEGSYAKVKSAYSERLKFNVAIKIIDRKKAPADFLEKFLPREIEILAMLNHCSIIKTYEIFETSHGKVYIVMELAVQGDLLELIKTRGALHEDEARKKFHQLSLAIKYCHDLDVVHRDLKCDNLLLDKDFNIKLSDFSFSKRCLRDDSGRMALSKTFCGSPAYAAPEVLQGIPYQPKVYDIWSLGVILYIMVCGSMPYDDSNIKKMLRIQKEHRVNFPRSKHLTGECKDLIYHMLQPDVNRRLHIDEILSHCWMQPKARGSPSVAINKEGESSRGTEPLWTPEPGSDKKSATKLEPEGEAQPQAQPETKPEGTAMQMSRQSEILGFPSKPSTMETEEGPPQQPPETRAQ

[25] = system: Phosphatidylinositol 4,5-bisphosphate 3-kinase catalytic subunit alpha isoform (Homo sapiens), P42336 [Q546K]; test: Inhibition of PIK3CA Q546K mutant at 10 uM
[26] = molecular target: Inhibitor of nuclear factor kappa-B kinase subunit beta (Homo sapiens) (UniProt O14920); test: Inhibition of IKK-beta at 10 uM; conditions: values are per cent of control
[27] = molecular target: Serine/threonine-protein kinase D3 (Homo sapiens) (UniProt O94806); test: Inhibition of PRKD3 at 10 uM
[28] = molecular target: Death-associated protein kinase 2 (Homo sapiens) (UniProt Q9UIK4); test: Inhibition of DAPK2 at 10 uM; conditions: values are per cent of control
Chain of Death-associated protein kinase 2 (Homo sapiens) (Q9UIK4 whole entry, looked up): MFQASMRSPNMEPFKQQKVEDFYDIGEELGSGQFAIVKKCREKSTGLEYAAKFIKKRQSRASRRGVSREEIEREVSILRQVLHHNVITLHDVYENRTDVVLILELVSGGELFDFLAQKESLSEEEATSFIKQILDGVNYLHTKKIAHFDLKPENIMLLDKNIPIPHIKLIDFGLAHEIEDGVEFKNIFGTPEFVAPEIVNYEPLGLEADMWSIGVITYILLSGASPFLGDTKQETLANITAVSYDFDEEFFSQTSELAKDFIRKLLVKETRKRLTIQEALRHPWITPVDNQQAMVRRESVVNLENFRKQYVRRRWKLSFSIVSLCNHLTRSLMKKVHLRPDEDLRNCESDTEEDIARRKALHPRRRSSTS

[29] = molecular target: Maternal embryonic leucine zipper kinase (Homo sapiens) (UniProt Q14680); test: Inhibition of MELK at 10 uM; conditions: values are per cent of control
[30] = molecular target: Protein-tyrosine kinase 2-beta (Homo sapiens) (UniProt Q14289); test: Inhibition of PYK2 at 10 uM; conditions: values are per cent of control
[31] = molecular target: Serine/threonine-protein kinase RIO1 (Homo sapiens) (UniProt Q9BRS2); test: Inhibition of RIOK1 at 10 uM
[32] = molecular target: Mitogen-activated protein kinase kinase kinase 6 (Homo sapiens) (UniProt O95382); test: Inhibition of ASK2 at 10 uM; conditions: values are per cent of control
[33] = molecular target: Mitogen-activated protein kinase kinase kinase 15 (Homo sapiens) (UniProt Q6ZN16); test: Inhibition of MAP3K15 at 10 uM; conditions: values are per cent of control
[34] = molecular target: Discoidin domain-containing receptor 2 (Homo sapiens) (UniProt Q16832); test: Inhibition of DDR2 at 10 uM; conditions: values are per cent of control
Chain of Discoidin domain-containing receptor 2 (Homo sapiens) (Q16832 whole entry, the tested form may be a part): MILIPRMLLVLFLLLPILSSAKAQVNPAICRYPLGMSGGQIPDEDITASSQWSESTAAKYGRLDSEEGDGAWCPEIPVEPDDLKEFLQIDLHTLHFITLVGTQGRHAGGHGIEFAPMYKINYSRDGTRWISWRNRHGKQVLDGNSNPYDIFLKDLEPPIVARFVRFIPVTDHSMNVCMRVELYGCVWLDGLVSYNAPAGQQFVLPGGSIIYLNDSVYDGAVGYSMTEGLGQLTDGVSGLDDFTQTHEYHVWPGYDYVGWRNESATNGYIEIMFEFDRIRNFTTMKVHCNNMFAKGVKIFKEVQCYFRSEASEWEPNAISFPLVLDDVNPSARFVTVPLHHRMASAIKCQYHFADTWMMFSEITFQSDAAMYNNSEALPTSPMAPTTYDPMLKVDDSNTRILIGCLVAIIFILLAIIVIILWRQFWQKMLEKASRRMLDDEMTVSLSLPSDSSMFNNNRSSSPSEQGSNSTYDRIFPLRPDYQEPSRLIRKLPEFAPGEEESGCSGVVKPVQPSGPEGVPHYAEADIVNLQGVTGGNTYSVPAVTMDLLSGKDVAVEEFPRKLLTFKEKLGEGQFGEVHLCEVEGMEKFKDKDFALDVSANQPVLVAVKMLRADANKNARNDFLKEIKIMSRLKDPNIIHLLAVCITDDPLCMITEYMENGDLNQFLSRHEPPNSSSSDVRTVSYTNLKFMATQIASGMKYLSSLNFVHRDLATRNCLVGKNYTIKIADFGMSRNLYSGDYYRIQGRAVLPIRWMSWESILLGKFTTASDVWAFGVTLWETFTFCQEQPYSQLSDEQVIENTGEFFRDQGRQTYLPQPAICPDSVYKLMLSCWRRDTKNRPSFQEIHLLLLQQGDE

[35] = molecular target: Macrophage-stimulating protein receptor (Homo sapiens) (UniProt Q04912); test: Inhibition of MST1R at 10 uM
Chain of Macrophage-stimulating protein receptor (Homo sapiens) (Q04912 25-304 limits assumed): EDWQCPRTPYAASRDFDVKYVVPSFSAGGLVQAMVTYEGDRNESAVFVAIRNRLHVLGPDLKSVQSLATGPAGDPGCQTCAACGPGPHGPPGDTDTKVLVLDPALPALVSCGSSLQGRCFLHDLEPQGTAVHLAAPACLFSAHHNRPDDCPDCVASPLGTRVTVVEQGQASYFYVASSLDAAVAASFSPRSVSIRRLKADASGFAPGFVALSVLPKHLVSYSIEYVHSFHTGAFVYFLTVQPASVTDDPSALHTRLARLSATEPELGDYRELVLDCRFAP
Chain of Macrophage-stimulating protein receptor (Homo sapiens) (Q04912 310-1400 limits assumed): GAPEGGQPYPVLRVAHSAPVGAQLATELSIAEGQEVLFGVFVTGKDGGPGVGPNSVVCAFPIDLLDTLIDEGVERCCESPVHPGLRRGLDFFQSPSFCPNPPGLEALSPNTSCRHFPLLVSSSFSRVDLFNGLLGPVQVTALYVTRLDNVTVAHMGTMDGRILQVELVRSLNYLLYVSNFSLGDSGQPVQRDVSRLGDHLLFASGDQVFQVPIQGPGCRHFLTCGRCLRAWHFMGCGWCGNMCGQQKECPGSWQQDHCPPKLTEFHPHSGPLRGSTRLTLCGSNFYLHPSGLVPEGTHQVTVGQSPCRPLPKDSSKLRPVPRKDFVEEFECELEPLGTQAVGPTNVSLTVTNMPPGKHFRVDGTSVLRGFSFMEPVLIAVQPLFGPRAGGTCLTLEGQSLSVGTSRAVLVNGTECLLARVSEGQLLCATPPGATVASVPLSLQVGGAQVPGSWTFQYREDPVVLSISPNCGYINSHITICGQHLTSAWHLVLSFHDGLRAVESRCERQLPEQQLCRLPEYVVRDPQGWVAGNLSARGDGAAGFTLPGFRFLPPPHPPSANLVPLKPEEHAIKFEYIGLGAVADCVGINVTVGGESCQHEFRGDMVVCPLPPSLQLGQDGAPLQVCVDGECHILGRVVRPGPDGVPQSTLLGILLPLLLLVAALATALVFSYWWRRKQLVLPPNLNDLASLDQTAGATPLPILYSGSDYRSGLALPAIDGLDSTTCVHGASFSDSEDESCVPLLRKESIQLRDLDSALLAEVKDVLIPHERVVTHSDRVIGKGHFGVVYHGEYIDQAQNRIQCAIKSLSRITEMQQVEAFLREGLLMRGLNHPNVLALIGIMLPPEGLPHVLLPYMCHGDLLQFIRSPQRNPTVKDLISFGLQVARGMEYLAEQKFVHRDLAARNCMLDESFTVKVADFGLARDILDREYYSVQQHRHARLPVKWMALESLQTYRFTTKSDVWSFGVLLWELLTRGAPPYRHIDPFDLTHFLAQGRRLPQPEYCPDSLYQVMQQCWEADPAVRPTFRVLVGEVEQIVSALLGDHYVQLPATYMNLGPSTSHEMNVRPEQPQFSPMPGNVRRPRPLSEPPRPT

[36] = molecular target: Activated CDC42 kinase 1 (Homo sapiens) (UniProt Q07912); test: Inhibition of TNK2 at 10 uM; conditions: values are per cent of control
[37] = molecular target: Wee1-like protein kinase (Homo sapiens) (UniProt P30291); test: Inhibition of WEE1 at 10 uM; conditions: values are per cent of control
[38] = molecular target: Tyrosine-protein kinase Lck (Homo sapiens) (UniProt P06239); test: Inhibition of LCK at 10 uM; values are per cent of control
[39] = molecular target: Cyclin-dependent kinase 11A (Homo sapiens) (UniProt Q9UQ88); test: Inhibition of CDC2L2 at 10 uM; conditions: values are per cent of control
Chain of Cyclin-dependent kinase 11A (Homo sapiens) (Q9UQ88 whole entry): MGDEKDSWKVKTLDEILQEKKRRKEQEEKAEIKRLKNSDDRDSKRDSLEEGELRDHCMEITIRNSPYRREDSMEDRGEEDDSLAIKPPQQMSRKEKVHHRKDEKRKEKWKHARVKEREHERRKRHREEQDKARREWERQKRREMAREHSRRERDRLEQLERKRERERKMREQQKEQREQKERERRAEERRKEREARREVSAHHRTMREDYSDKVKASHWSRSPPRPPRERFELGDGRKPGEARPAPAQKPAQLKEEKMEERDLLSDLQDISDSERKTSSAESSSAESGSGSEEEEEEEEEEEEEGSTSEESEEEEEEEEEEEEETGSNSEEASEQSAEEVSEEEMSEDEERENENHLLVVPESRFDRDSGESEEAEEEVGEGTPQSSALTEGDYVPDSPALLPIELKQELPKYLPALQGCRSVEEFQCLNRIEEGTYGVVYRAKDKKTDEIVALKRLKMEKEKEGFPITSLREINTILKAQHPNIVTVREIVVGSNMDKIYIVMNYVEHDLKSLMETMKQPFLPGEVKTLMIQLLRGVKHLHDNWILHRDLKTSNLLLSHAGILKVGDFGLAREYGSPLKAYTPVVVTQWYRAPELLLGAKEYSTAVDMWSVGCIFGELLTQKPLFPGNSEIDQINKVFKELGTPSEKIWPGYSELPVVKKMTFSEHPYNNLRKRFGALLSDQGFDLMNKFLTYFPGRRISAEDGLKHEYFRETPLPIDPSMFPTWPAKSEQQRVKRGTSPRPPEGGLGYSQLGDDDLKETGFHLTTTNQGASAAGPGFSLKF

[40] = molecular target: Homeodomain-interacting protein kinase 1 (Homo sapiens) (UniProt Q86Z02); test: Inhibition of HIPK1 at 10 uM; conditions: values are per cent of control
[41] = molecular target: Proto-oncogene tyrosine-protein kinase Src (Homo sapiens) (UniProt P12931); test: Inhibition of SRC at 10 uM; values are per cent of control
[42] = molecular target: Insulin receptor (Homo sapiens) (UniProt P06213); test: Inhibition of INSR at 10 uM; conditions: values are per cent of control

CCN1CCN(Cc2ccc(NC(=O)c3ccc(C)c(C#Cc4cccnc4)c3)cc2C(F)(F)F)CC1
residual binding, % of control [1]: 0.05%
level, % of control [2]: 1.2%
level, % of control [3]: 80%
residual binding, % of control [4]: 24%
residual binding, % of control [5]: 0.85%
inhibition [6]: 84%
residual binding, % of control [7]: 0.4%
level, % of control [8]: 3%
residual binding, % of control [9]: 100%
residual binding, % of control [10]: 2.9%
inhibition [11]: 100%
level, % of control [12]: 6.5%
residual binding, % of control [13]: 0%
residual binding, % of control [14]: 100%
residual binding, % of control [15]: 2.2%
residual binding, % of control [16]: 4%
inhibition [17]: 60%
residual binding, % of control [18]: 0%
level, % of control [19]: 6.2%
level, % of control [20]: 20%
residual binding, % of control [21]: 100%
inhibition [22]: 0.05%
residual binding, % of control [23]: 100%
residual binding, % of control [24]: 92%
inhibition [25]: 100%
residual binding, % of control [26]: 0%
inhibition [27]: 22%
residual binding, % of control [28]: 100%
residual binding, % of control [29]: 8.1%
residual binding, % of control [30]: 0.4%
inhibition [31]: 90%
residual binding, % of control [32]: 12%
residual binding, % of control [33]: 78%
residual binding, % of control [34]: 1%
inhibition [35]: 68%
residual binding, % of control [36]: 11%
residual binding, % of control [37]: 100%
level, % of control [38]: 0.05%
residual binding, % of control [39]: 1.6%
residual binding, % of control [40]: 37%
% of control [41]: 0%
residual binding, % of control [42]: 58%

CCN1CCN(Cc2ccc(NC(=O)c3ccc(C)c(C#Cc4cnc5[nH]ccc5c4)c3)cc2C(F)(F)F)CC1
residual binding, % of control [1]: 0.2%
level, % of control [2]: 6.2%
level, % of control [3]: 88%
residual binding, % of control [4]: 4.6%
residual binding, % of control [5]: 1.6%
inhibition [6]: 60%
residual binding, % of control [7]: 0.35%
level, % of control [8]: 3%
residual binding, % of control [9]: 100%
residual binding, % of control [10]: 0.1%
inhibition [11]: 100%
level, % of control [12]: 13%
residual binding, % of control [13]: 0.05%
residual binding, % of control [14]: 20%
residual binding, % of control [15]: 1.9%
residual binding, % of control [16]: 4.9%
inhibition [17]: 2.4%
residual binding, % of control [18]: 0%
level, % of control [19]: 2.9%
level, % of control [20]: 3.4%
residual binding, % of control [21]: 100%
inhibition [22]: 0%
residual binding, % of control [23]: 95%
residual binding, % of control [24]: 98%
inhibition [25]: 100%
residual binding, % of control [26]: 0.1%
inhibition [27]: 6.4%
residual binding, % of control [28]: 100%
residual binding, % of control [29]: 6.1%
residual binding, % of control [30]: 0.15%
inhibition [31]: 53%
residual binding, % of control [32]: 11%
residual binding, % of control [33]: 72%
residual binding, % of control [34]: 2.8%
inhibition [35]: 76%
residual binding, % of control [36]: 0.6%
residual binding, % of control [37]: 100%
level, % of control [38]: 0.1%
residual binding, % of control [39]: 0%
residual binding, % of control [40]: 48%
% of control [41]: 0.05%
residual binding, % of control [42]: 53%
